Seven compounds from PubChem BioAssay (NCI) can be followed below.

Common to all, as to assay: NCI tumour cell line growth inhibition, 48 h
Assay [1] deals with SK-OV-3 ovarian.
For assay [2], the system named is SNB-19 CNS.
Assay [3] concerns OVCAR-4 ovarian.
The test system of assay [4] is IGROV1 ovarian.
Assay [5] has as its system HL-60(TB) leukemia.
Assay [6] concerns NCI-H226 lung.
Assay [7] concerns MDA-MB-435.
The subject of assay [8] is CCRF-CEM leukemia.
The subject of assay [9] is A549 NSCLC.
Assay [10] deals with MALME-3M melanoma.

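In this assay, cells in 96-well plates receive the compound at five concentrations for 48 hours. Endpoints are linearly interpolated between the surrounding concentrations. GI50: concentration for 50% inhibition of growth. TGI: concentration producing complete growth inhibition.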

Regarding `COc1ccc(N=Cc2c(O)ccc3c2oc2cc(Cl)c(O)c(Cl)c23)cc1`, the GI50 in assay [1] is 15.9 µM; in assay [2], 13.9 µM; in [3], 16.3 µM; in [4], 14.7 µM; in assay [5] it was 13.2 µM; in assay [6], 13.7 µM. Further, the GI50 in assay [7] was 11.6 µM; in assay [8] it was 4.5 µM; in assay [9], 14.5 µM; in [10] it was 3.63 µM. Further, the TGI is 49.5 µM in [1]; 79.8 µM in assay [2]; above 100 µM in [3]; 43.3 µM in [4]; 42.7 µM in assay [5]; 41.7 µM in [6]. Further, the TGI is 43.2 µM in assay [7], 31.8 µM in assay [8], 48.2 µM in [9] and 21.8 µM in assay [10].
As to `C=CCC(N[C@@H](CO)c1ccccc1)c1cn(Cc2ccccc2Cl)c(=O)n(Cc2ccccc2Cl)c1=O` (stereo partly specified), the GI50 in assay [1] is above 100 µM; in [2] it was above 100 µM; in [3], above 100 µM; in assay [5] it was 93.2 µM; in assay [6] it was above 100 µM; in [7], above 100 µM. Also, the GI50 in assay [8], in assay [9] and in assay [10] was above 100 µM throughout. For the same compound, the TGI in [1], in assay [2], in assay [3], in assay [5], in assay [6] and in assay [7] was above 100 µM throughout. Moreover, the TGI in [8], in assay [9] and in [10] was above 100 µM throughout.
On to `Nc1ccccc1NC(=O)c1ccc(CNc2nccc(-c3cccnc3)n2)cc1`, for which the GI50 in [1] is 1.37 µM; in [2], 3.49 µM; in [3] it was 1.43 µM; in assay [4], 2.36 µM; in assay [5], 0.424 µM; in assay [6] it was 1.79 µM. Further, the GI50 in assay [7] is 0.299 µM; in assay [8], 0.742 µM; in assay [9], 1.35 µM; in assay [10] it was 0.57 µM. Further, the TGI was above 28.7 µM in assay [1]; above 100 µM in assay [2]; above 28.3 µM in assay [3]; above 27.7 µM in [4]; 2.43 µM in [5]; 23.6 µM in [6]. The TGI was 1.25 µM in [7], above 100 µM in [8], above 47.6 µM in assay [9] and above 21.7 µM in [10].
Take `CCOC(=O)[C@@H](C)C[C@H](Cc1ccccc1)NC(=O)c1nc([C@@H](C[C@H](C(C)C)N(C)C(=O)[C@@H](NC(=O)[C@H]2CCCCN2C)C(C)C)OC(C)=O)sc1CCOCc1ccccc1`: the GI50 in assay [1] was 0.0188 µM; in [2], 0.0926 µM; in assay [3], 0.222 µM; in assay [4], 0.0995 µM; in assay [5], 0.0394 µM; in assay [6] it was 0.107 µM. Further, the GI50 is 0.0123 µM in assay [7], 0.0795 µM in assay [8], 0.101 µM in [9] and 0.0602 µM in [10]. The TGI in assay [1] is above 11.1 µM; in assay [2], 4.34 µM; in assay [3], above 11.1 µM; in assay [4] it was 2.81 µM; in assay [5], 0.19 µM; in assay [6], 1.05 µM. Moreover, the TGI is 0.0478 µM in assay [7], above 6.52 µM in assay [8], 2.17 µM in assay [9] and 2.17 µM in assay [10].
For `O=C1CC[C@H](N2C(=O)c3cccc4c(Cc5ccc(CN6CCOCC6)cc5)ccc2c34)C(=O)N1`, the GI50 in assay [1] was above 100 µM; in [2] it was above 100 µM; in assay [3], 21.9 µM; in assay [4] it was above 100 µM; in assay [5] it was 24.1 µM; in assay [6], 11.7 µM. For the same compound, the GI50 in [7] was 36.9 µM; in assay [8] it was 55.9 µM; in [9], 52.6 µM; in assay [10] it was 30 µM. For the same compound, the TGI in [1], in assay [2], in [3], in assay [4], in assay [5] and in assay [6] was above 100 µM throughout. For the same compound, the TGI in assay [7], in assay [8], in assay [9] and in assay [10] was above 100 µM in each case.
Turning to `COc1cccc(CCC2CCCN(c3cc(C)nc(N)n3)C2)c1` (stereo unspecified), the GI50 in assay [1] is 0.414 µM; in assay [2] it was 0.521 µM; in assay [3], 0.692 µM; in assay [4], 0.666 µM; in assay [5], 0.251 µM; in assay [6], 1.91 µM. Besides, the GI50 is 0.153 µM in [7], 0.34 µM in assay [8], 0.722 µM in [9] and 0.527 µM in assay [10]. The TGI was found to be 11.7 µM in assay [1]; 16 µM in assay [2]; 19.3 µM in [3]; 12.8 µM in assay [4]; 0.686 µM in [5]; 19.3 µM in assay [6]. The TGI in assay [7] was 0.404 µM; in assay [8], 22.2 µM; in assay [9] it was 15.2 µM; in assay [10], 14.9 µM.
For `Cn1cc(C2=C(c3ccccc3[N+](=O)[O-])C(=O)NC2=O)c2ccccc21`, the GI50 is 4.79 µM in assay [1]; 6.88 µM in [2]; 4.88 µM in assay [3]; 6.9 µM in [4]; 2.11 µM in assay [5]; 4.37 µM in assay [6]. Further, the GI50 in [7] is 4.82 µM; in [9], 4.09 µM; in [10], 9.55 µM. Also, the TGI is above 25 µM in assay [1]; above 25 µM in [2]; 24.5 µM in assay [3]; above 19.5 µM in assay [4]; 13.9 µM in assay [5]; above 20.3 µM in assay [6]. The TGI was above 25 µM in assay [7], above 21.8 µM in assay [9] and above 20.8 µM in [10].
